From US20130237478A1, “COMPOSITIONS AND METHODS FOR TREATMENT OF PERIPHERAL VASCULAR DISEASE” (TARIX PHARMACEUTICALS LTD., priority 2012, published 2013)
Positions of bridges follow the written chain, without caps; N, C: chain ends. No end group written: not given here.

How the values were obtained:
[1] = system: hind limb ischemia; assay: Capillary density in muscle sections, mouse hind limb ischemia model; assay type: in vivo, Balb/c mice; conditions: Example 2, 49 days after treatment beginning
Excerpt: The model used in this example is the same as for Example 1. Briefly, the hind limb ischemia model in mice used in this example involves two ligations of the proximal end of the femoral artery and its dissection between the two ligatures. The surgery causes obstruction of the blood flow and subsequently leads to severe ischemic damage (Goto, et al.; Kang, et al.). In this experiment, healthy adult female Balb/c mice were used. Hind limb ischemia was induced in mice using protocols previously described. Briefly, Balb/c female mice were maintained on a standard diet with water available ad libitum. Mice were anesthetized and an incision was made in the skin in the inguinal area. The femoral artery was ligated twice with 6-0 silk thread and transected between the ligatures after this the wound was closed with 4-0 silk thread and the mouse was allowed to recover.
(§1) An Angiotensin (1-7) polypeptide composition (PanCyte) and vehicle control (DPBS) were supplied as ready to use solutions and were stored at 4° C. until use. […]
Sections of muscle samples were taken from the same areas in 6-7 animals from each group. Capillaries were counted under a microscope in a total 12 random fields from different sections. Density was expressed as the mean number of capillaries per field of view. […]

[2] = system: hind limb ischemia; assay: Semi-quantitative assessment of limb function in mouse hind limb ischemia model; assay type: in vivo, Balb/c mice
Excerpt: A stable hind limb ischemia model has been described previously and is generally characterized by uniform ischemic damage useful for examining the effect of various therapies (Goto, et al. Tokai J Exp Clin Med, 31(3):128 2006; Kang Y, et al. PLoS One. 2009; 4(1):e4275)). The hind limb ischemia model in mice used in this example involves two ligations of the proximal end of the femoral artery and its dissection between the two ligatures. The surgery causes obstruction of the blood flow and subsequently leads to severe ischemic damage (Goto, et al.; Kang, et al.). In this experiment, healthy adult female Balb/c mice were used. Hind limb ischemia was induced in mice using protocols previously described. Briefly, Balb/c female mice were maintained on a standard diet with water available ad libitum. Mice were anesthetized and an incision was made in the skin in the inguinal area. The femoral artery was ligated twice with 6-0 silk thread and transected between the ligatures after this the wound was closed with 4-0 silk thread and the mouse was allowed to recover.
An Angiotensin (1-7) polypeptide composition (TXA127) and vehicle control (DPBS) were supplied as ready to use solutions and were stored at 4° C. until use. TXA127 was injected subcutaneously (500 μg/kg) daily starting on day 1, 24 hours after inducing ischemia, until the end of the study. […]
Semi-quantitative assessment of impaired use of the ischemic limb was performed once a week post-surgery using the scale shown in Table 6 (Stabile et al, Circulation 108(2):205 2003). […]
as §1
Semi-quantitative assessment of impaired use of the ischemic limb was performed once a week post-surgery using the scale shown in Table 6 above. […]
An Angiotensin (1-7) polypeptide composition (PanCyte, cyclized Asp^1-Arg^2-Val^3-Ser^4-Ile^5-His^6-Cys (SEQ ID NO:22)) and vehicle control (DPBS) were supplied as ready to use solutions and were stored at 4° C. until use. […]

[3] = system: Transient middle cerebral artery occlusion (tMCAO); assay: Body swing test after tMCAO stroke; assay type: in vivo, rats; conditions: for body swing performance vs vehicle: by Day 28
Description: For the purposes of this example, Transient middle cerebral artery occlusion (tMCAO) procedure Day is defined as “Day 1” in this study. On the day of surgery anesthesia were induced with 4% isoflurane in a mixture of 70% N2O and 30% O2 and maintained with 1.5-2% isoflurane.
The tMCAO procedures were performed according to the method described R. Schmid-Elsaesser et al. Briefly, the right CCA (Common Carotid Artery) was exposed through a midline neck incision and carefully dissected free from surrounding nerves and fascia—from its bifurcation to the base of the skull. The occipital artery branches of the ECA (External Carotid Artery) were then isolated, and these branches were dissected and coagulated. The ECA was dissected further distally and coagulated along with the terminal lingual and maxillary artery branches, which was then divided. The ICA (Internal Carotid Artery) was isolated and carefully separated from the adjacent vagus nerve, and the pterygopalatine artery was ligated close to its origin with a 5-0 nylon suture (SMI, Belgium). Next, a 4-0 silk suture was tied loosely around the mobilized ECA stump, and a 4 cm length of 4-0 monofilament nylon suture (the tip of the suture was blunted by using a flame, and the suture was coated with polylysine, prior to insertion) was inserted through the proximal ECA into the ICA and thence into the circle of Willis, effectively occluding the MCA. The surgical wound was closed and the animals were returned to their cages to recover from anesthesia. One hour and a half after occlusion rats were re-anesthetized, the monofilament was withdrawn to allow reperfusion, the surgical wound was closed and rats were returned to their cages.
Animals were subjected to a modified Modified Neurological Rating Scale (mNRS) at 24 hours post reperfusion. Only animals with an overall score of ≧10 were included in this study. Animals were allocated into the test groups, according to the mNRS results on day 2, in order to have similar distribution of rats performance between groups. Starting on day 2, 24 hours post-surgery, animals in groups 4, 5 and 7 were implanted subcutaneously with an osmotic Alzet pump and treated with either 500 μg/kg TXA127, 500 μg/kg PanCyte, or 50 μg/kg Linear PanCyte. Animals in groups 2, 3 and 6 received 500 μg/kg or 1,000 μg/kg TXA127 or 500 μg/kg PanCyte, administered subcutaneously via daily injection. Animals in group 1 were treated with a daily subcutaneous injection of a PBS (vehicle).
Each rat was held approximately one inch from the base of its tail. It was then elevated to an inch above a surface of a table. The rat was held in the vertical axis, defined as no more than 10° to either the left or the right side. A swing was recorded whenever the rat moves its head out of the vertical axis to either side. Before attempting another swing, the rat must return to the vertical position for the next swing to be counted. Twenty (20) total swings were counted. A normal rat typically has an equal number of swings to either side. Following focal ischemia, the rat tends to swing to the contralateral side (left side in this case). Body swing scores are expressed as a percentage of […] over total swings.

Substance: cyclized Asp^1-Arg^2-Val^3-Ser^4-Ile^5-His^6-Cys (SEQ ID NO:22) (DRVSIHC; bridge 4-7; not fully specified; printed as Asp1-Arg2-Val3-Ser4-Ile5-His6-Cys7) [PanCyte, cyclic angiotensin peptide]
- capillary density (number of capillaries per field) vs control ([1]; 50 μg/kg SC daily): significantly increased the number of capillaries
- capillary density (number of capillaries per field) vs control ([1]; 500 μg/kg SC daily): significantly increased the number of capillaries
- limb function vs control ([2]; Example 2, 500 μg/kg SC daily (2F), day 28): improvement in limb function
- limb function vs control ([2]; Example 3, 1 μg/kg SC daily (2F), days 14 and 21): improvement in limb function
- limb function vs control ([2]; Example 3, 50 μg/kg continuous infusion by Alzet pump (6F), days 14 and 21): improvement in limb function
- body swing performance vs vehicle ([3]; 500 μg/kg SC daily): significant improvement in performance
- body swing performance ([3]; 500 μg/kg by Alzet pump, by Day 21): showed improvement
- body swing performance vs vehicle ([3]; 500 μg/kg by Alzet pump): significant improvement in performance
